Data taken from patent US10179927B2, “Electrochemical detection of microorganisms” (priority 2014, dated 2019).
Like-named read-outs stand apart in the source and are kept apart here. Marks after values point to notes of the source that are not given here.

What was measured:
E. coli [1] = test: Current from unconjugated redox active reporter moieties with E. coli in self-powering bioelectrochemical systems (BES, microbial fuel cells); type: cell-based, Escherichia coli; conditions: 1 kΩ load, ambient temperature
Method: Resorufin (TCI-Europe), 2-hydroxy-1,4-naphthoquinone (2H14NQ) (TCI-Europe), 5-hydroxy-1,4-naphthoquinone (5H14NQ) (TCI-Europe) and 5,8-dihydroxy-1,4-naphthoquinone (58H14NQ) (Sigma-Aldrich) were obtained commercially and added to M9 medium in their unconjugated form to achieve a working concentration of 50 μM. Resorufin glycoconjugates (resorufin-β-d-galactopyranoside and resorufin-β-d-glucopyranoside) were obtained commercially (Sigma-Aldrich), whereas 2-hydroxy-1,4-naphthoquinone-β-d-galactopyranoside (2H14NQGal) and 2-hydroxy-1,4-naphthoquinone-β-d-glucopyranoside (2H14NQG1u) were specifically synthesized by Sussex Research Ltd. All reporters were added to a final concentration of 50 μM. Stock concentrations (1.0×10^−3 M) of 2H14NQ and 5H14NQ were prepared by first dissolving in 10 μL of 2 M NaOH and then making up to volume in Type II water (Veolia) whereas 58H14NQ (1.0×10^−3 M) was prepared in 1:1 DMSO:Type II water aliquots. Both stock solutions were stored at −20° C. until needed. Conjugated reporters were maintained as 1 mM stock solutions in Type II water and stored at 5° C. […]
Dual chamber U-tube BESs, in the form of microbial fuel cells (MFCs), were constructed with two 90° 28/15 ball-to-plain-end and socket-to-plain-end glass quick fit elbows (17 mm O.D.×1.8 mm wall thickness) (VWR, Singapore) to form the anode and cathode chambers (Sund et al., Appl. Microbiol. Biotechnol. 2007; 76:561-568.). […] A 1 kΩ load was applied across the circuit and potential difference was recorded using an eDAQ e-corder® data acquisition system (ED 1621-16 channel recorder) equipped with Chart™ software (Bronjo Medi, Singapore) at a rate of 1 data point every 5 min. […]
Naphthoquinones are cheap redox active molecules which are compatible with E. coli and can be readily conjugated to pyranose rings (Rau et al. Environ. Sci. Technol. 2002; 36:1497-1504; Park and Zeikus. Appl. Environ. Microbiol. 2000; 66:1292-1297). […]

E. coli [2] = test: Current from unconjugated redox active reporter moieties mediating electron transfer between E. coli and the electrode in ECs; type: cell-based, Escherichia coli; conditions: 5×10^5 CFU mL^−1 of E. coli; for Maximum recorded current in ECs: unconjugated reporter 50 μM
Method: (§1) Resorufin (TCI-Europe), 2-hydroxy-1,4-naphthoquinone (2H14NQ) (TCI-Europe), 5-hydroxy-1,4-naphthoquinone (5H14NQ) (TCI-Europe) and 5,8-dihydroxy-1,4-naphthoquinone (58H14NQ) (Sigma-Aldrich) were obtained commercially and added to M9 medium in their unconjugated form to achieve a working concentration of 50 μM. Resorufin glycoconjugates (resorufin-β-d-galactopyranoside and resorufin-β-d-glucopyranoside) were obtained commercially (Sigma-Aldrich), whereas 2-hydroxy-1,4-naphthoquinone-β-d-galactopyranoside (2H14NQGal) and 2-hydroxy-1,4-naphthoquinone-β-d-glucopyranoside (2H14NQG1u) were specifically synthesized by Sussex Research Ltd. All reporters were added to a final concentration of 50 μM. Stock concentrations (1.0×10^−3 M) of 2H14NQ and 5H14NQ were prepared by first dissolving in 10 μL of 2 M NaOH and then making up to volume in Type II water (Veolia) whereas 58H14NQ (1.0×10^−3 M) was prepared in 1:1 DMSO:Type II water aliquots. Both stock solutions were stored at −20° C. until needed. Conjugated reporters were maintained as 1 mM stock solutions in Type II water and stored at 5° C.
(§2) Escherichia coli strain BL21 was selected to represent a FIB of human origin that contains the uidA and lacZ genes, i.e. a FC, whereas Aeromonas hydrophila (DSM 6173) is an environmental organism that has the lacZ gene but which is not considered a coliform. All organisms were cultured aerobically for 20 h. E. coli was grown in Luria Bertani (Lennox) medium at 37° C., and A. hydrophile at 30° C. in tryptone soy broth (TSB) in a shaking incubator.
(§3) The resulting overnight cultures were diluted in sterile modified M9 medium (Na2HPO4.7H2O (126 mM); KH2PO4 (110 mM); NH4Cl (93 mM); NaCl (42 mM); 1 mL/L vitamin stock solution; tryptone 12.5 g/L; HEPES: 6 g/L; and macro nutrients). The carbon source was either D-galacturonic acid or D-glucuronic acid (3.75 g/L) to achieve a final inoculum density in the range of 1.0×10^0, 5.0×10^0, 5.0×10^1, 5.0×10^2, 5.0×10^3, 5.0×10^4, and 5.0×10^5 CFU mL^−1 in both electrochemical system and the bioelectrochemical system.
Conical ECs with a working volume of 10 mL were used with a customized Teflon cap to accommodate a three electrode configuration along with gas fittings to maintain a moist anaerobic atmosphere. Carbon felt working electrodes (1×1×0.318 cm) (VWR, Singapore) were kept for 24 h in 1 M HCl and stored in deionized (DI) water before use. The electrodes were connected to titanium wire (0.25 mmØ, Sigma-Aldrich) using a nylon nut and bolt. A coiled titanium wire was used as counter electrode and an Ag/AgCl reference electrode (78 mm, 6 mm Outer Ø, Biologic, France) was connected using a 1 M KCl in 1.5% agar salt bridge. The assembled cell was then filled with 1 M KCl solution ending in a 4 mm glass frit (CoralPor™, Biologic, France). The entire assembly was then autoclaved (121° C. for 15 min). Nine mL of degassed modified M9 medium was added to the ECs and supplemented with a reporter to a final concentration of 5.0×10^−5 M in 10 mL working volume. […]
(§4) Following reporter supplement and inoculation with the test microorganism, the ECs were connected to a multichannel potentiostat (Biologic, France) and cyclic voltammetry (CV) and differential pulse voltammetry (DPV) were performed immediately. Data acquisition was recorded by EC-Lab software (Biologic, France). […] A detection event was calculated as 4 times the standard deviation of the baseline and detection times are expressed as the mean of triplicate analyses unless stated otherwise. […]

[3] = test system: Escherichia coli strain BL21; test: Chronoamperometric detection of E. coli with electrochemically active reporters in three-electrode electrochemical systems (ECs); type: cell-based; conditions: for Detection time (±std dev): chronoamperometry in ECs, reporter 50 μM; for Detection time for E. coli: inoculum sizes between 5×10^5-5×10^3, ECs (Table 1)
Method: as §1, §2, §3
Conical ECs with a working volume of 10 mL were used with a customized Teflon cap to accommodate a three electrode configuration along with gas fittings to maintain a moist anaerobic atmosphere. Carbon felt working electrodes (1×1×0.318 cm) (VWR, Singapore) were kept for 24 h in 1 M HCl and stored in deionized (DI) water before use. The electrodes were connected to titanium wire (0.25 mmØ, Sigma-Aldrich) using a nylon nut and bolt. A coiled titanium wire was used as counter electrode and an Ag/AgCl reference electrode (78 mm, 6 mm Outer Ø, Biologic, France) was connected using a 1 M KCl in 1.5% agar salt bridge. The assembled cell was then filled with 1 M KCl solution ending in a 4 mm glass frit (CoralPor™, Biologic, France). The entire assembly was then autoclaved (121° C. for 15 min). Nine mL of degassed modified M9 medium was added to the ECs and supplemented with a reporter to a final concentration of 5.0×10^−5 M in 10 mL working volume. The ECs were then inoculated with the targeted test organism to achieve a final working volume of 10 mL. The headspace was flushed continuously with sterile humidified N2. The ECs were operated at 30° C., 37° C. or 44.5° C. Stirring was maintained continuously with a magnetic stirrer in the dark to prevent photo-bleaching of the light sensitive mediators.
Following reporter supplement and inoculation with the test microorganism, the ECs were connected to a multichannel potentiostat (Biologic, France) and cyclic voltammetry (CV) and differential pulse voltammetry (DPV) were performed immediately. Data acquisition was recorded by EC-Lab software (Biologic, France). Chronoamperometry (CA) was applied for up to 24 h to detect redox active reporter moieties. A detection event was calculated as 4 times the standard deviation of the baseline and detection times are expressed as the mean of triplicate analyses unless stated otherwise. […]

[4] = test system: mixed culture of E. coli and A. hydrophila; test: Detection time of mixed culture of A. hydrophila and E. coli in ECs; type: cell-based, Escherichia coli; Aeromonas hydrophila; conditions: 44.5° C.; E. coli constant 5×10^5 CFU mL^−1; A. hydrophila from 5×10^2-5×10^5 CFU mL^−1 (FIG. 6)
Method: as §2, §3
Conical ECs with a working volume of 10 mL were used with a customized Teflon cap to accommodate a three electrode configuration along with gas fittings to maintain a moist anaerobic atmosphere. Carbon felt working electrodes (1×1×0.318 cm) (VWR, Singapore) were kept for 24 h in 1 M HCl and stored in deionized (DI) water before use. The electrodes were connected to titanium wire (0.25 mmØ, Sigma-Aldrich) using a nylon nut and bolt. A coiled titanium wire was used as counter electrode and an Ag/AgCl reference electrode (78 mm, 6 mm Outer Ø, Biologic, France) was connected using a 1 M KCl in 1.5% agar salt bridge. […]
as §4

E. coli [5] = conditions: Perez et al., cited from earlier work
Escherichia coli = test: Suitability of colorimetric detection compounds for bioelectrochemical detection of Escherichia coli; type: cell-based; conditions: compound used for colorimetric detection of Escherichia coli
Excerpt: Bioelectroanalytical techniques are emerging as ways to enumerate and scrutinize microbial systems. But there is still need in the art for technologies specifically designed for bioelectroanalytical detection of FIB. […] The latter, in particular, makes them unsuitable in self-powering systems.

[6] = 37° C., inoculum 5 × 10^2 CFU mL^−1
[7] = 37° C., inoculum 5 × 10^3 CFU mL^−1
[8] = 37° C., inoculum 5 × 10^4 CFU mL^−1
[9] = 37° C., inoculum 5 × 10^5 CFU mL^−1

Row | Structure (SMILES) | Current observed in BES (E. coli [1]) [μA] | Maximum recorded current in ECs (E. coli [2]) [μA] | Detection time (±std dev) [3, 6] | Detection time (±std dev) [3, 7] | Detection time (±std dev) [3, 8] | Detection time (±std dev) [3, 9] | Suitability for bioelectrochemical detection (Escherichia coli) | further results
1 | O=C1C=C(O)C(=O)c2ccccc21 [2H14NQ, 2-hydroxy-1,4-naphthoquinone] | 40 | ~100 |  |  |  |  |  | Maximum current relative to that achieved with 5H14NQ (E. coli [2]; ECs): ~14 times; Maximum current relative to that observed with 58H14NQ (E. coli [2]; ECs): ~25 times
2 | O=C1C=C(O[C@@H]2O[C@H](CO)[C@H](O)[C@H](O)[C@H]2O)C(=O)c2ccccc21 [2H14NQGal, 2-hydroxy-1,4-naphthoquinone-β-d-galactopyranoside] |  |  | 413(±14) minutes | 359(±13) minutes | 143(±17) minutes | 113(±13) minutes |  | Detection time ([3]; inoculum equivalent to 5×10^3 CFU mL^−1 of Perez et al., n=3): 6.87 h
3 | O=C1C=C(O[C@@H]2O[C@H](CO)[C@@H](O)[C@H](O)[C@H]2O)C(=O)c2ccccc21 [2H14NQGlu, 2-hydroxy-1,4-naphthoquinone-β-d-glucopyranoside] |  |  | 339(±41) minutes | 187(±31) minutes | 142(±11) minutes | 120(±21) minutes |  | Detection time, mixed culture [4]: 125 to 172 min; Detection time (±std dev) ([3]; 30° C., inoculum 5 × 10^2 CFU mL^−1): 832* minutes; Detection time (±std dev) ([3]; 30° C., inoculum 5 × 10^3 CFU mL^−1): 574* minutes; Detection time (±std dev) ([3]; 30° C., inoculum 5 × 10^5 CFU mL^−1): 168* minutes; Detection time ([3]; 44.5° C., 10 organism, FIG. 7): 19 h; Detection time ([3]; 44.5° C., 500 organisms, FIG. 7): 12.5 h; Detection time ([3]; 44.5° C., 5000 organisms, FIG. 7): ~9 h; Detection time ([3]; 44.5° C., "CFU mL^−1 of E. coli" (number not given), FIG. 7): ~19 h; Detection time ([3]; 44.5° C., inoculum size 500 CFU mL^−1, FIG. 7): less than 10 h; Detection time for E. coli [3]: 120 to 188 min
4 | Nc1ccc(O[C@@H]2O[C@H](CO)[C@H](O)[C@H](O)[C@H]2O)cc1 [4-APgal, 4-aminophenyl-β-d-galactopyranoside] |  |  |  |  |  |  | not well suited for bioelectrochemical detection | Detection time (E. coli [5]; 1 CFU mL^−1 (laboratory sample)): 10 h; Detection time (E. coli [5]; 4.5 CFU mL^−1 (marine sample)): 7.3 h
5 | O=C(O)[C@H]1O[C@@H](Oc2ccc([N+](=O)[O-])cc2)[C@H](O)[C@@H](O)[C@@H]1O [4-NPglu, 4-nitrophenol-β-d-glucuronidase] |  |  |  |  |  |  | not well suited for bioelectrochemical detection | 
6 | O=C1C=CC(=O)c2c(O)cccc21 [5H14NQ, 5-hydroxy-1,4-naphthoquinone] | 6 | ~7 |  |  |  |  |  | 
7 | O=C(O)[C@H]1O[C@@H](Oc2cccc3cccnc23)[C@H](O)[C@@H](O)[C@@H]1O [8-hydroxyquinoline glucuronide] |  |  |  |  |  |  | not well suited for bioelectrochemical detection | 
8 | O=C1C=CC(=O)c2c(O)ccc(O)c21 [58H14NQ, 5,8-dihydroxy-1,4-naphthoquinone] | 2.5 | ~4 |  |  |  |  |  | 
9 | O=c1ccc2nc3ccc(O[C@@H]4O[C@H](CO)[C@@H](O)[C@H](O)[C@H]4O)cc3oc-2c1 [ResGlu, resorufin-β-d-glucopyranoside] |  |  | 431(±29) minutes | 397(±52) minutes | 309(±33) minutes | 259(±19) minutes |  | Detection time ([3]; inoculum size 5×10^3 CFU mL^−1, ECs): 6.6 h; Detection time for E. coli [3]: 258 to 397 min
